{"source": "paper PMC5007466", "about": "“VCP recruitment to mitochondria causes mitophagy impairment and neurodegeneration in models of Huntington's disease” (Nature Communications, 2016)", "key": {"[1]": {"test_system": "wild-type mouse striatal cells", "experiment": "GFP-LC3B association with mitochondria in cells expressing Flag-VCP", "type": "cell-based", "settings": "wt striatal cells, 36 h", "description": "Figure 5 Treatment of HV-3 reduces excessive mitophagy in HD cell cultures and HD mouse brains. (a) HdhQ7 and HdhQ111 cells were treated with control siRNA (con) or VCP siRNA (siVCP) for 48 h. Mitochondria were isolated and LC3 mitochondrial levels were determined by WB. Representative blots are from three independent experiments. The quantitation of LC3 II levels on mitochondria is provided on the right. VADC was used as a loading control. (b) Flag-VCP and GFP-LC3B were co-transfected into wild-type striatal cells. Mitochondria were isolated after 36 h of transfection. The GFP-LC3B levels on mitochondria were examined by WB. VDAC was used as a loading control. Representative blots are from three independent experiments. Histogram: quantitation of GFP-LC3B mitochondrial protein level. HdhQ7 and HdhQ111 cells were treated with control peptide TAT or peptide HV-3 (3 uM/day for 3 days). (c) HdhQ111 cells were transfected with GFP-LC3B for 24 h. The number of GFP-LC3B puncta was quantitated and shown in the histogram. […] (d) Enzyme activity of lysosomal Cathepsin B was measured using a Cathepsin B assay kit. […] (e) Mitochondrial mass was measured by the fluorescent density of Mitotracker green. […] Histogram: the number of mitophagosomes per 100 μm^2 was counted and quantitated. Fifteen random areas in the striatum of each animal were analyzed. […]\nProtein concentrations were determined by Bradford assay. […]"}, "R6/2 mice [2]": {"test_system": "R6/2 mice", "experiment": "Hindlimb clasping (tail suspension test)", "type": "in vivo, mouse", "settings": "R6/2, 8 to 11 weeks of age, 3 mg kg^−1 per day, n=15, versus TAT", "description": "Male hemizygous R6/2 mice (Tg) and their age-matched wt littermates (5-week-old) were implanted with a 28-day osmotic pump (Alzet, Cupertino CA) containing TAT control peptide or HV-3 peptide, which delivered peptides to the mice at a rate of 3 mg kg^−1 per day. The first pump was implanted subcutaneously in the back of 5-week-old mice between the shoulders and replaced once, after 4 weeks.\nHindlimb clasping was assessed with the tail suspension test once a week from the ages 8 to 11 weeks in R6/2 mice. Mice were suspended by the tail for 60 s and the latency for the hindlimbs or all four paws to clasp was recorded using the score system[67]: Clasping over 10 s, score 3; 5–10 s, score 2; 0–5 s, score 1; 0 s, score 0."}, "R6/2 mice [3]": {"test_system": "R6/2 mice", "experiment": "PGC1-alpha protein level in mouse brain", "type": "in vivo", "settings": "R6/2 mouse brains (peer review file)", "from_the_text": "Comment 2: Also how do the authors fit this in with the well-established defects in PGC1-alpha in HD. Do you have to have both?\nResponse: We thank the reviewer for these insightful comments. Following […]\nmouse brains of R6/2 mice treated with either HV-3 or control peptide TAT.\nConsistent with previous studies, we observed that PGC1-alpha was decreased in HD R6/2 mouse brains. To our surprise, treatment with HV-3 can partially […]\non the right). It is possible that this increase in PGC1-alpha level is an indirect effect of improvement of mitochondrial mass and quality by the HV-3 treatment.\nRecent studies have shown that PGC1-alpha regulates mitophagy and autophagy via TFEB (Tsunemi T et al., Sci Trans Med, 2014; Siddiqui A et al., J Neurosci, 2015). Thus, our result may raise another possibility that there is a correlation between PGC1alpha and VCP-mediated mitophagy in HD. However, the mechanism remains to be determined, and it is beyond the scope of this manuscript. In response to the reviewer’s comment, we now add the following sentences in the discussion in the revised manuscript.\n“In addition, PGC1α, a key regulator of mitochondrial biogenesis implicated in HD pathogenesis, has recently been reported to regulate mitophagy and autophagy through TFEB signaling 65, 66. […]"}}, "data": [{"smiles": "CSCC[C@H](NC(=O)[C@@H](NC(=O)[C@H](CC(C)C)NC(=O)[C@@H](NC(=O)[C@H](Cc1c[nH]cn1)NC(=O)CCCCCNC(=O)[C@H](CCCNC(=N)N)NC(=O)[C@H](CCCNC(=N)N)NC(=O)[C@H](CCCNC(=N)N)NC(=O)[C@H](CCC(N)=O)NC(=O)[C@H](CCCNC(=N)N)NC(=O)[C@H](CCCNC(=N)N)NC(=O)[C@H](CCCCN)NC(=O)[C@H](CCCCN)NC(=O)[C@H](CCCNC(=N)N)NC(=O)CNC(=O)[C@@H](N)Cc1ccc(O)cc1)C(C)C)C(C)C)C(=O)N[C@@H](CS)C(=O)N[C@@H](C)C(=O)N[C@H](C(N)=O)[C@@H](C)O", "note": "[HV-3]", "values": [{"measurement": "GFP-LC3B association with mitochondria", "setting": "[1]", "result": "could be inhibited by treatment with HV-3"}, {"measurement": "severity of clasping behaviour", "setting": "R6/2 mice [2]", "result": "significantly lower over the 4-week observation period"}, {"measurement": "PGC1-alpha protein level", "setting": "R6/2 mice [3]", "result": "improve the protein level of PGC1-alpha in the R6/2 mouse brains"}]}]}
